Test results from patent US12152060B2, “Interleukin-2 variants and methods of uses thereof” (Cugene Inc, priority 2018, dated 2024).
Entries after “also recorded” stand apart in the source; their conditions may differ.

What was measured:
[1] = test system: STAT5 phosphorylation in CD4+ Treg cells (CD4+/Foxp3+/CD25high); test: STAT5 phosphorylation in CD4+ Treg cells, human PBMC assay by FACS; type: cell-based; settings: for window for selective activation of Treg cells over CD4+ Tconv cells (in words): pSTAT5, Treg versus Tconv; for pSTAT5 activity profile compared with benchmark molecules (in words): Treg and CD4+ Tconv cells
Excerpt: Single amino acid substitutions were introduced to IL-2 at positions corresponding to amino acids interacting with receptor subunit(s) β or γ or By. These substitutions were aimed to reduce IL-2 signaling capacity through the intermediate affinity IL-2Rβγ complex and confer signaling specificity from the high affinity IL-2Rαβγ. IL-2 variants containing single amino acid substitutions were examined for their ability to differentially stimulate STAT5 phosphorylation in CD4 positive Treg and Tconv cells. STAT5 is known to be involved in the downstream signaling cascade upon IL-2 binding to the transmembrane IL-2 receptors. The phosphorylation of STAT5 in defined lymphocyte subpopulations was measured using fresh human peripheral blood mononuclear cells (PBMC) and the forkhead transcription factor FOXP3 was used to identify the Treg population in FACS analysis.
Briefly, human PBMC were isolated by Ficoll-Hypaque centrifugation from the buffy coat of a healthy donor. PBMC were starved in serum-free MACS buffer at 4° C. for 1 hour. 2×10^5 PBMC were then treated with serial dilutions of test compounds for 30 min at 37° C. Cells were fixed and permeabilized with Foxp3/Transcription Factor Staining Buffer Set (EBIO) by incubating with 1× Foxp3 fixation/permeabilization working solution for 30 minutes and washing with 1× permeabilization buffer. Cells were additionally fixed with Cytofix buffer and permeabilized with Perm Buffer III (BD Biosciences) and then washed. After blocking Fc receptors by adding human TruStain™ FcX (1:50 dilution), cells were stained with a mixture of anti-CD25-PE, anti-FOXP3-APC, anti-pSTAT5-FITC, and anti-CD4-PerCP-Cy5.5 antibodies at concentrations recommended by the manufacturer for 45 minutes at room temperature. Cells were collected by centrifugation, washed, resuspended in FACS buffer, and analyzed by flow cytometry. The flow cytometry data was gated into CD4+/Foxp3+/CD25^high and CD4+/Foxp3−/CD25^low groups for the Treg and CD4 conventional T cell subsets, respectively. Data are expressed as a percent of pStat5 positive cells in gated population.

[2] = test system: regulatory T cells (CD4+CD25+FoxP3+ T cells), effector T cells and NK cells; test: Treg versus effector T and NK cell proliferation and expansion in mice after a single subcutaneous injection; type: in vivo, mouse; settings: 0.3 mg/kg s.c. single dose, C57/BL6 mice; for Treg cell proliferation and expansion (Ki67 positive Treg, % Treg over CD4+ T cells or lymphocytes): days 3, 5, 7
Protocol: IL-2 variant Fc fusion proteins were administered to mice and their ability to preferentially proliferate and expand regulatory T cells (CD4+CD25+FoxP3+ T cells) over effector T cells and NK cells were determined in vivo.
Female C57/BL6 mice (7-week old) were received from Charles River Laboratory and acclimated in house for at least 7 days before the study. Vehicle (PBS), 0.3 mg/kg of each test compounds, or IL-2 benchmark compounds were subcutaneously administered to mice on day 0. Peripheral blood samples were collected into heparin-treated tubes on days 3, 5 and 7 post-treatment. Each group contained 6 mice and baseline blood was collected 2 days prior to the treatment (day-2). After red blood cell lysis, total viable mononuclear blood cells were counted by trypan blue dead cell exclusion method and proceeded to intracellular staining for immune cell phenotype and Ki67 proliferation markers using flow cytometric analysis. Cells were stained separately with two panels of antibodies as listed: 1) anti-mouse Foxp3-FITC, Ki67-PE, anti-mouse CD25-APC and anti-mouse CD4-Percpcy5.5 (1:50 dilution) for CD4+T-regulatory cells (Treg); 2) anti-mouse CD3-FITC, Ki67-PE, anti-mouse CD335-APC and anti-mouse CD8-Percpcy5.5 (1:50 dilution) for CD8+T and NK cells.

[3] = test system: delayed-type hypersensitivity (DTH) mouse model; test: KLH-induced delayed-type hypersensitivity (DTH) mouse model, ear thickness; type: in vivo
Protocol: The ability of Treg cells induced by IL-2 variants to suppress T cell antigen-driven inflammation in vivo was assessed in a model of delayed-type hypersensitivity (DTH). Female Balb/C mice (7-week old) were acclimated in house for 7 days and randomized into groups. Subcutaneous administration of vehicle (PBS), P-0511 at either 0.1 mg/kg or 0.3 mg/kg was initiated on day-2 and was given either once every 3 days (Q3D) for three injections or once every 5 days (Q5D) for two injections. Mice were then sensitized with a subcutaneous administration of 100 μg keyhole limpet hemocyanin (KLH) in 200 μl saline on day 0. For Q3D dosing, two more subcutaneous injections of PBS or P-0511 (0.1 or 0.3 mg/kg) were administered on days 1 and 4; for Q5D dosing, one additional s.c. injection of PBS, 0.1 or 0.3 mg/kg P-0511 was administered on day 3. Mice received an intradermal challenge of KLH (5 μg in 10 μl saline) in right ear on day 5. Right ear thickness was measured using a caliper on day 5 prior KLH challenge and daily from day 6 to day 8 corresponding to 24 h, 48h, and 72 h post KLH challenge. One group of mice also received 5 mg/kg daily i.p. treatment of dexamethasone from day 5 to day 8 as a positive control.
Kinetics of the DTH response using the change in ear thickness relative to baseline values (Δ ear thickness) at various times after KLH challenge was illustrated in FIG. 23.
In a separate study, dose-dependent response of P-0511 (0.1, 0.3 and 1 mg/kg, Q5D) on suppression of KLH-induced DTH was determined and compared with Benchmark-1 (0.3 mg/kg, Q5D).

[4] = test system: STAT5 phosphorylation in CD4+/Foxp3+/CD25+ Treg, CD4+/Foxp3-/CD25+ CD4 effector and CD4+/Foxp3-/CD25- CD4 naive T cell subsets; test: STAT5 phosphorylation in three CD4+ T cell subsets, human PBMC; type: cell-based; settings: FIG. 9
Protocol: After human PBMC Cells were treated with serial dilutions of test compounds, fixed and permeabilized, washed, and stained with a mixture of anti-CD25-PE, anti-FOXP3-APC, anti-pSTAT5-FITC, and anti-CD4-PerCP-Cy5.5 antibodies, the flow cytometry analysis was gated into CD4+/Foxp3+/CD25+, CD4+/Foxp3−/CD25+, CD4+/Foxp3−/CD25− groups for the Treg, CD4 effector, and CD4 naive T cell subsets, respectively. Data are expressed as a percent of pSTAT5 positive cells in gated population and illustrated in FIG. 9.

[5] = test system: Treg cells in blood; test: Pharmacodynamics study in mice following repeated administration (Q3D); type: in vivo, mouse; settings: 0.3 mg/kg s.c. Q3D x3; compared to P-0531 and Benchmark-1
Protocol: Female Balb/C mice (7-week old) were acclimated in house for 5-7 days before the study. Vehicle (PBS), 0.3 mg/kg of P-0511, P-0512, P-0531, or Benchmark-1 compound were subcutaneously administered to mice (n=5/group) on days 0, 3, and 6. On days 3 and 9, three days after the first injection and multiple (3) injections, respectively, peripheral blood was collected. Based on earlier in vivo experiments, Treg cell activation, proliferation, and expansion were expected to peak on day 3, and thus three days post injection was selected for data collection and analysis. Changes in blood lymphocyte activation, proliferation, and expansion were measured by flow cytometry. P-0531 is the S125I equivalent of the wild type IL-2 fusion protein. The Benchmark-1 contains V91K mutation.

Compound: P-0491: Fc fusion protein of IL-2 variant L19H/S125I; SEQ ID NO: 185
- window for selective activation of Treg cells over CD4+ Tconv cells (in words) [1]: without altering Treg selectivity

Compound: P-0449: Fc fusion protein of IL-2 variant L19S/Q126E; SEQ ID NO: 170
- pSTAT5 activity profile compared with benchmark molecules (in words) [1]: on par with Benchmark-3

Compound: P-0514: Fc fusion protein of IL-2 variant L19Q/S125I/Q126E; SEQ ID NO: 201
- expansion of CD4+ Tconv cells, CD8 T cells or NK cells [2]: No significant expansion
- Treg cell proliferation and expansion (Ki67 positive Treg, % Treg over CD4+ T cells or lymphocytes) [2]: stronger in vivo efficacy

Compound: P-0372: Fc fusion protein of IL-2 variant L19Y; SEQ ID NO: 79
- window for selective activation of Treg cells over CD4+ Tconv cells (in words) [1]: modestly improved selective window

Compound: P-0424: Fc fusion protein of IL-2 variant L19H; SEQ ID NO: 148
- window for selective activation of Treg cells over CD4+ Tconv cells (in words) [1]: selective activation of Treg cells over CD4+ Tconv cells

Compound: P-0531: Fc fusion protein of IL-2 variant S125I, the S125I equivalent of wild type P-0250; SEQ ID NO: 162
- window for selective activation of Treg cells over CD4+ Tconv cells (in words) [1]: without altering Treg selectivity

Compound: Benchmark-1: benchmark Fc-IL-2 variant fusion protein containing V91K mutation; SEQ ID NO: 191 [reference compound]
- Ki67 stimulation on CD8 T cells and NK cells [2]: strong Ki67 stimulation
- Treg cell proliferation and expansion (Ki67 positive Treg, % Treg over CD4+ T cells or lymphocytes) [2]: highest potency
- inhibition of ear inflammation (KLH-induced DTH), separate study ([3]; 0.3 mg/kg, Q5D): mild inhibition of ear swelling

Compound: P-0425: Fc fusion protein of IL-2 variant L19D; SEQ ID NO: 149
- window for selective activation of Treg cells over CD4+ Tconv cells (in words) [1]: wide window for selective targeting of Treg subset

Compound: P-0363: Fc fusion protein of IL-2 variant D20T; SEQ ID NO: 72
- window for selective activation of Treg cells over CD4+ Tconv cells (in words) [1]: some or significant biased selective window

Compound: Benchmark-3: benchmark Fc-IL-2 variant fusion protein containing N88D; SEQ ID NO: 192 [reference compound]
- Ki67 stimulation on CD8 T cells and NK cells [2]: low effects
- Treg cell proliferation and expansion (Ki67 positive Treg, % Treg over CD4+ T cells or lymphocytes) [2]: not efficacious

Compound: P-0447: Fc fusion protein of IL-2 variant L19H/Q126E; SEQ ID NO: 168
- pSTAT5 activity profile compared with benchmark molecules (in words) [1]: on par with Benchmark-3

Compound: P-0448: Fc fusion protein of IL-2 variant L19Q/Q126E; SEQ ID NO: 169
- pSTAT5 activity profile compared with benchmark molecules (in words) [1]: on par with Benchmark-3

Compound: P-0512: Fc fusion protein of IL-2 variant L19H/S125I/Q126K; SEQ ID NO: 199
- Ki67 stimulation on CD8 T cells and NK cells [2]: mild Ki67 stimulation
- expansion of CD4+ Tconv cells, CD8 T cells or NK cells [2]: No significant expansion
- Treg cell proliferation and expansion (Ki67 positive Treg, % Treg over CD4+ T cells or lymphocytes) [2]: stronger in vivo efficacy
- pSTAT5 potency and selectivity in Treg, Teff and naive CD4 T cell subsets (in words) [4]: comparable activity profile to Benchmark-1
- Treg cell counts, fold changes relative to PBS and Treg/Tconv ratio [5]: superior capabilities to sustain Treg pool

Compound: P-0303: Fc fusion protein of IL-2 variant Q126E; SEQ ID NO: 88
- window for selective activation of Treg cells over CD4+ Tconv cells (in words) [1]: modestly improved selective window

Compound: P-0373: Fc fusion protein of IL-2 variant L19N; SEQ ID NO: 80
- window for selective activation of Treg cells over CD4+ Tconv cells (in words) [1]: wide window for selective targeting of Treg subset; also recorded: some or significant biased selective window

Compound: C[C@@H]1C[C@H]2[C@@H]3CCC4=CC(=O)C=C[C@]4(C)[C@@]3(F)[C@@H](O)C[C@]2(C)[C@@]1(O)C(=O)CO [dexamethasone, reference compound]
- inhibition of KLH-induced inflammatory response (ear swelling) ([3]; 5 mg/kg daily i.p., 4 consecutive doses, 72 hours after KLH challenge): ~85%
